Measured values published in ChEMBL document CHEMBL5236590, “Discovery of Novel N-(5-(Pyridin-3-yl)-1H-indazol-3-yl)benzamide Derivatives as Potent Cyclin-Dependent Kinase 7 Inhibitors for the Treatment of Autosomal Dominant Polycystic Kidney Disease” (J Med Chem, 2022).

How the values were obtained:
[1] = molecular target: T1, Cyclin-dependent kinase 7 (Homo sapiens, UniProt P50613); assay: Inhibition of CDK7 (unknown origin) assessed as phosphorylation of ULight 4EBP1 peptide substrate measured after 2 hrs by FRET-based LANCE Ultra KinSelect assay
[2] = molecular target: T2, Cyclin-dependent kinase 2 (Homo sapiens, UniProt P24941); assay: Inhibition of CDK2 (unknown origin) assessed as phosphorylation of ULight 4EBP1 peptide substrate measured after 2 hrs by FRET-based LANCE Ultra KinSelect assay
[3] = molecular target: T1, Cyclin-dependent kinase 7; assay: Inhibition of CDK7 (unknown origin) assessed as phosphorylation of ULight 4EBP1 peptide substrate at 10 uM measured after 2 hrs by FRET-based LANCE Ultra KinSelect assay relative to control
[4] = molecular target: T2, Cyclin-dependent kinase 2; assay: Inhibition of CDK2 (unknown origin) assessed as phosphorylation of ULight 4EBP1 peptide substrate at 10 uM measured after 2 hrs by FRET-based LANCE Ultra KinSelect assay
THP-1 = assay: Cytotoxicity against human THP-1 cells assessed as cell viability measured after 24 hrs by CCK-8 assay; assay type: functional, cell-based; details: THP-1, 24 h

T1 sequence (P50613 whole entry): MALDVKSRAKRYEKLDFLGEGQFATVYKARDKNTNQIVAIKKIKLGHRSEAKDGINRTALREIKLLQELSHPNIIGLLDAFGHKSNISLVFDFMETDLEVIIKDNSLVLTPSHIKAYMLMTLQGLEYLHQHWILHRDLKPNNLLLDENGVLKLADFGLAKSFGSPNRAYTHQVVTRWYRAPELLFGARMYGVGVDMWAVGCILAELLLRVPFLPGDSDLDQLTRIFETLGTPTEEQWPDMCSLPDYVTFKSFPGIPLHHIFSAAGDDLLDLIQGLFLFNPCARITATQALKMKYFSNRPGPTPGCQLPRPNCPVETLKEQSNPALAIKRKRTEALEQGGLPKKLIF

Row | Structure (SMILES) | IC50 [1] | IC50 [2] | further results
1 | Cc1cncc(-c2ccc3[nH]nc(NC(=O)c4ccccc4)c3c2)c1 | 2610 nM | – | –
2 | N[C@H](Cc1ccccc1)C(=O)Nc1cncc(-c2ccc3[nH]nc(NC(=O)c4ccccc4)c3c2)c1 | 2070 nM | 550 nM | –
3 | N[C@@H](COc1cncc(-c2ccc3[nH]nc(NC(=O)c4ccccc4)c3c2)c1)Cc1ccccc1 | 2390 nM | 499 nM | –
4 | NCCNc1cncc(-c2ccc3[nH]nc(NC(=O)c4ccccc4)c3c2)c1 | 1560 nM | – | –
5 | CNC(=O)c1cncc(-c2ccc3[nH]nc(NC(=O)c4ccccc4)c3c2)c1 | 3780 nM | – | –
6 | N[C@@H](C(=O)Nc1cncc(-c2ccc3[nH]nc(NC(=O)c4ccccc4)c3c2)c1)c1ccccc1 | – | – | inhibition [3]: 34%; inhibition [4]: 29%
7 | O=C(Nc1n[nH]c2ccc(-c3cccnc3)cc12)c1ccccc1 | 7550 nM | – | –
8 | O=C(Nc1n[nH]c2ccc(-c3cncc(NC[C@H](CO)Cc4ccccc4)c3)cc12)c1ccccc1 | 2640 nM | 2400 nM | –
9 | CN(C)C/C=C/C(=O)Nc1ccc(C(=O)Nc2cccc(Nc3ncc(Cl)c(-c4c[nH]c5ccccc45)n3)c2)cc1 | – | – | IC50 (THP-1): 77000 nM
10 | COc1cncc(-c2ccc3[nH]nc(NC(=O)c4ccccc4)c3c2)c1 | 5530 nM | – | –
11 | N[C@H](C(=O)Nc1cncc(-c2ccc3[nH]nc(NC(=O)c4ccccc4)c3c2)c1)c1ccccc1 | 3140 nM | – | inhibition [4]: 34%
12 | N[C@@H](COc1cncc(-c2ccc3[nH]nc(NC(=O)c4ccccc4)c3c2)c1)c1ccccc1 | 4920 nM | – | inhibition [4]: 48%
13 | O=C(Nc1n[nH]c2ccc(-c3cncc(O)c3)cc12)c1ccccc1 | 7240 nM | – | –
14 | Nc1cncc(-c2ccc3[nH]nc(NC(=O)c4ccccc4)c3c2)c1 | – | – | inhibition [3]: 45%
15 | NCCOc1cncc(-c2ccc3[nH]nc(NC(=O)c4ccccc4)c3c2)c1 | 2000 nM | – | –
16 | O=C(Nc1n[nH]c2ccc(-c3cncc(NC[C@H](CO)c4ccccc4)c3)cc12)c1ccccc1 | 1730 nM | 577 nM | –
17 | NCC(=O)Nc1cncc(-c2ccc3[nH]nc(NC(=O)c4ccccc4)c3c2)c1 | 2490 nM | – | –
18 | O=C(Nc1n[nH]c2ccc(-c3cncc(NCCO)c3)cc12)c1ccccc1 | 1710 nM | – | –

The remaining molecules from weak to strong by IC50 [1], led by results:

Row | IC50 [1] | IC50 [2] | Structure (SMILES) | further results
19 | 1340 nM | 1050 nM | N[C@@H](Cc1ccccc1)C(=O)Nc1cncc(-c2ccc3[nH]nc(NC(=O)c4ccccc4)c3c2)c1 | –
20 | 710 nM | 813 nM | O=C(Nc1n[nH]c2ccc(-c3cncc(NC[C@@H](CO)c4ccccc4)c3)cc12)c1ccccc1 | –
21 | 692 nM | 120 nM | N[C@H](COc1cncc(-c2ccc3[nH]nc(NC(=O)c4ccccc4)c3c2)c1)c1ccccc1 | –
22 | 670 nM | 609 nM | O=C(Nc1n[nH]c2ccc(-c3cncc(NC[C@@H](CO)Cc4ccccc4)c3)cc12)c1ccccc1 | –
23 | 440 nM | 802 nM | O=C(Nc1n[nH]c2ccc(-c3cncc(NC[C@@H](O)c4ccccc4)c3)cc12)c1ccccc1 | –
24 | 395 nM | 190 nM | NC[C@@H](CNc1cncc(-c2ccc3[nH]nc(NC(=O)c4ccccc4)c3c2)c1)c1ccccc1 | –
25 | 335 nM | 97 nM | N[C@H](COc1cncc(-c2ccc3[nH]nc(NC(=O)c4ccccc4)c3c2)c1)Cc1ccccc1 | –
26 | 311 nM | 269 nM | O=C(Nc1n[nH]c2ccc(-c3cncc(NC[C@H](O)c4ccccc4)c3)cc12)c1ccccc1 | –
27 | 64 nM | – | C=CC(=O)Nc1ccc(C(=O)Nc2n[nH]c3ccc(-c4cncc(NC(=O)[C@@H](N)c5ccccc5)c4)cc23)cc1 | –
28 | 19 nM | 756 nM | C=CC(=O)Nc1ccc(C(=O)Nc2n[nH]c3ccc(-c4cncc(N[C@H](CO)c5ccccc5)c4)cc23)cc1 | –
29 | 7 nM | 477 nM | C=CC(=O)Nc1ccc(C(=O)Nc2n[nH]c3ccc(-c4cncc(NC(=O)[C@@H](N)Cc5ccccc5)c4)cc23)cc1 | –
30 | 6 nM | 918 nM | C=CC(=O)Nc1ccc(C(=O)Nc2n[nH]c3ccc(-c4cncc(NC[C@H](O)c5ccccc5)c4)cc23)cc1 | –
31 | 5 nM | 595 nM | C=CC(=O)Nc1ccc(C(=O)Nc2n[nH]c3ccc(-c4cncc(N[C@H](CO)Cc5ccccc5)c4)cc23)cc1 | –
